Results as given in ChEMBL document CHEMBL5724696, “Autophagy assay results for EUbOPEN Chemogenomics Library” (2024).

Key:
[1] = system: U2OS; assay: (§1) Here: values are normalized to the negative (DMSO; defined as 0% autophagy induction) and positive (250nM Torin1; mTOR inhibitor; defined as maximal inducer of autophagy = 100%) control compounds and represented as % of autophagy induction. […] The impact of autophagy induction on cells is complex and depends on the affected target. As such, the magnitude of a phenotype may not be equally mirrored in the %-value of autophagy induction and vice versa. The dynamics of the induction may indicate the mode of activation: e.g. activation via phosphorylation or a signaling cascade may occur fast, while activation via transcription factors may take considerably longer. […] Of note, treatment concentrations may be sub-optimal for specific compounds, leading to false negative annotations.; format: functional, Homo sapiens; conditions: Culturing Media DMEM, 1 % Penicillin/Streptomycin, 10% Fetal bovin serum Add-On: No, Screening Media Control DMEM, Screening Media Samples DMEM
[2] = system: U2OS; assay: as §1; format: functional, Homo sapiens; conditions: Culturing Media DMEM, 1 % Penicillin/Streptomycin, 10% Fetal bovin serum Add-On: No, Screening Media Control DMEM, Screening Media Samples DMEM; remark: listed apart in the source
[3] = Compound Concentration 0.5 uM, Timepoint 12 hours
[4] = Compound Concentration 0.5 uM, Timepoint 24 hours
[5] = Compound Concentration 0.5 uM, Timepoint 36 hours
[6] = Compound Concentration 0.5 uM, Timepoint 60 hours
[7] = Compound Concentration 2 uM, Timepoint 12 hours
[8] = Compound Concentration 2 uM, Timepoint 24 hours
[9] = Compound Concentration 2 uM, Timepoint 36 hours
[10] = Compound Concentration 2 uM, Timepoint 60 hours
[11] = Compound Concentration 10 uM, Timepoint 12 hours
[12] = Compound Concentration 10 uM, Timepoint 24 hours
[13] = Compound Concentration 10 uM, Timepoint 36 hours
[14] = Compound Concentration 10 uM, Timepoint 60 hours

| SMILES | autophagy induction [1, 3] [%] | autophagy induction [1, 4] [%] | autophagy induction [1, 5] [%] | autophagy induction [1, 6] [%] | autophagy induction [1, 7] [%] | autophagy induction [1, 8] [%] | autophagy induction [1, 9] [%] | autophagy induction [1, 10] [%] | autophagy induction [1, 11] [%] | autophagy induction [1, 12] [%] | autophagy induction [1, 13] [%] | autophagy induction [1, 14] [%] | autophagy induction [2, 3] [%] | autophagy induction [2, 4] [%] | autophagy induction [2, 5] [%] | autophagy induction [2, 6] [%] | autophagy induction [2, 7] [%] | autophagy induction [2, 8] [%] | autophagy induction [2, 9] [%] | autophagy induction [2, 10] [%] | also measured |
| --- | --- | --- | --- | --- | --- | --- | --- | --- | --- | --- | --- | --- | --- | --- | --- | --- | --- | --- | --- | --- | --- |
| Cc1cc(NC(=O)Nc2ccc(N(C)C)cc2)c2cc(F)cc(F)c2n1 | -2.687 | -3.664 | -3.669 | 114.219 | -0.9187 | -2.555 | -1.904 | 114.2 | 1.036 | -2.2709 | 0.4658 | 113.441 | -3.035 | -2.6114 | -4.581 | -2.138 | -10.8002 | -10.6502 | -6.099 | -2.686 | autophagy induction [2, 11]: 2.643%; autophagy induction [2, 12]: 9.654%; autophagy induction [2, 13]: 13.8869%; autophagy induction [2, 14]: 31.5866% |
| COc1ccc(Br)cc1S(=O)(=O)NC(=O)/C=C/c1ccccc1Cc1ccc2ccccc2c1 | 8.106 | 0.9964 | -0.06695 | 114.397 | -1.7757 | -1.309 | -1.876 | 114.114 | -6.0177 | -3.111 | -1.417 | 114.143 | 10.8816 | 4.975 | 5.043 | 1.1971 | -3.861 | -4.459 | -4.477 | -3.627 | autophagy induction [2, 11]: 11.1214%; autophagy induction [2, 12]: -0.228%; autophagy induction [2, 13]: 3.111%; autophagy induction [2, 14]: -1.844% |
| O=C(O)CC/C=C\C[C@@H]1CO[C@H](c2ccccc2Cl)O[C@@H]1c1ccccc1O | -2.932 | -1.885 | -1.616 | 114.317 | -0.3574 | -1.612 | -1.86 | 114.217 | -0.147 | -2.085 | -2.519 | 114.255 | -1.049 | 2.549 | 1.3825 | -3.206 | -3.826 | -5.258 | 1.68 | -8.886 | autophagy induction [2, 11]: 0.2701%; autophagy induction [2, 12]: -2.3073%; autophagy induction [2, 13]: -0.4123%; autophagy induction [2, 14]: -4.081% |
| COc1cccc(-c2c(C)n(Cc3c(F)cccc3C(F)(F)F)c(=O)n(C[C@H](NCCCC(=O)[O-])c3ccccc3)c2=O)c1F.[Na+] [ELAGOLIX SODIUM] | -3.352 | -3.1643 | -0.7483 | -1111.24 | -6.63 | -5.163 | -4.643 | 114.391 | -2.89 | -3.023 | -0.9947 | 114.218 | 4.133 | 4.438 | 6.469 | -7.02 | 12.3647 | 8.125 | 1.282 | -8.542 | autophagy induction [2, 11]: -6.525%; autophagy induction [2, 12]: -4.485%; autophagy induction [2, 13]: -1.897%; autophagy induction [2, 14]: -2.895% |
| CC(C)(N)C(=O)N[C@H](COCc1ccccc1)C(=O)N1CCC2(CC1)CN(S(C)(=O)=O)c1ccccc12.CS(=O)(=O)O [IBUTAMOREN MESYLATE] | 0.1513 | -2.852 | -1.869 | 114.207 | 2.232 | 1.174 | -0.1276 | 113.997 | 21.0515 | 11.8835 | 9.457 | 114.001 | -8.194 | -5.824 | -3.752 | 0.1138 | -4.688 | -1.11 | 1.85 | -0.8182 | autophagy induction [2, 11]: 7.887%; autophagy induction [2, 12]: 2.743%; autophagy induction [2, 13]: 7.197%; autophagy induction [2, 14]: 14.096% |
| O=C1O[C@]2(CC[C@H](C(=O)Nc3ccn(-c4ccccc4F)n3)CC2)c2cnccc21 [MK-0557] | 3.984 | 1.732 | 0.4919 | 114.165 | 0.04111 | -0.7319 | -2.648 | 114.407 | 2.947 | -1.736 | -2.592 | 114.447 | 2.719 | -3.33 | -1.0176 | -10.434 | 13.2836 | 10.9196 | 6.623 | 2.549 | autophagy induction [2, 11]: 4.4586%; autophagy induction [2, 12]: 4.355%; autophagy induction [2, 13]: 0.9374%; autophagy induction [2, 14]: -12.6304% |
